Laboratory results: ChEMBL document CHEMBL5537113, “Discovery of 1,2-diaryl-3-oxopyrazolidin-4-carboxamides as a new class of MurA enzyme inhibitors and characterization of their antibacterial activity” (Eur J Med Chem, 2023)
Activity calls are given as the source filed them. The calls are words filed in the database; no cut-off is given here.

Tests used:
Escherichia coli = assay: Antibacterial activity against Escherichia coli harboring tolC deletion mutant assessed as reduction in microbial growth incubated for 16 hrs by serial dilution method; assay type: functional
Bacillus subtilis = assay: Antibacterial activity against Bacillus subtilis ATCC 6633 assessed as reduction in microbial growth incubated for 16 hrs by serial dilution method; assay type: functional
Staphylococcus aureus [1] = assay: Antibacterial activity against Staphylococcus aureus Newman assessed as reduction in microbial growth incubated for 16 hrs by serial dilution method; assay type: functional
[2] = molecular target: T1, UDP-N-acetylglucosamine 1-carboxyvinyltransferase (Escherichia coli K-12, UniProt P0A749); assay: Inhibition of Escherichia colo K12 His-tagged MurA expressed in Escherichia coli BL21 cells using UNAG as substrate pre incubated for 10 mins followed by substrate addition and measured after 30 mins by microplate reader analysis
[3] = molecular target: T1, UDP-N-acetylglucosamine 1-carboxyvinyltransferase; assay: Inhibition of Escherichia coli K12 His-tagged MurA expressed in Escherichia coli BL21 cells using UNAG as substrate pre incubated for 15 mins followed by substrate addition and measured after 15 mins by microplate reader analysis
[4] = test system: UDP-N-acetylglucosamine 1-carboxyvinyltransferase (Escherichia coli K-12), P0A749 [C115D]; assay: Inhibition of Escherichia coli MurA C115D mutant using UNAG as substrate pre incubated for 15 mins followed by substrate addition and measured after 15 mins by microplate reader analysis; conditions: time 30.0 min
Staphylococcus aureus [5] = assay: Antibacterial activity against Staphylococcus aureus Newman D2C NCTC 10833 assessed as reduction in microbial growth incubated for 16 hrs by serial dilution method; assay type: functional
Bacteria = assay: Binding affinity to wild type U15-N labelled MurA (unknown origin) expressed in Escherichia coli at 500 uM using UNAG as substrate incubated for 90 to 150 mins by 15N-1H-HSQC NMR analysis; conditions: time 90-150 min
[6] = molecular target: UDP-N-acetylglucosamine 1-carboxyvinyltransferase (Escherichia coli K-12) (UniProt P0A749); assay: Inhibition of Escherichia coli K12 His-tagged MurA expressed in Escherichia coli BL21 cells at 50 uM using UNAG as substrate pre incubated for 15 mins followed by substrate addition and measured after 15 mins by microplate reader analysis relative to control; conditions: time 30.0 min
[7] = Drug uptake in Escherichia coli harboring tolC deletion mutant at 10 uM incubated for 30 mins by LC analysis; assay type: ADME; conditions: 0.5 h
[8] = Drug uptake in Escherichia coli harboring tolC deletion mutant assessed per 1.6x10^9 cells at 10 uM incubated for 30 mins by LC analysis; assay type: ADME; conditions: 0.5 h
Staphylococcus aureus [9] = assay: Antibacterial activity against methicillin sensitive Staphylococcus aureus NRS107 assessed as reduction in microbial growth by CLSI based broth microdilution method; assay type: functional
Staphylococcus aureus [10] = assay: Antibacterial activity against methicillin resistant Staphylococcus aureus NRS119 assessed as reduction in microbial growth by CLSI based broth microdilution method; assay type: functional
Staphylococcus aureus [11] = assay: Antibacterial activity against methicillin resistant Staphylococcus aureus USA300 assessed as reduction in microbial growth by CLSI based broth microdilution method; assay type: functional
Staphylococcus aureus [12] = assay: Antibacterial activity against vancomycin resistant Staphylococcus aureus 10 assessed as reduction in microbial growth by CLSI based broth microdilution method; assay type: functional
Streptococcus pneumoniae = assay: Antibacterial activity against Streptococcus pneumoniae ATCC 700677 assessed as reduction in microbial growth by CLSI based broth microdilution method; assay type: functional
Enterococcus faecalis = assay: Antibacterial activity against Enterococcus faecalis ATCC 51299 assessed as reduction in microbial growth by CLSI based broth microdilution method; assay type: functional
Clostridioides difficile = assay: Antibacterial activity against Clostridioides difficile ATCC BAA1870 assessed as reduction in microbial growth incubated for 48 hrs by broth microdilution method; assay type: functional

T1 sequence (P0A749 whole entry): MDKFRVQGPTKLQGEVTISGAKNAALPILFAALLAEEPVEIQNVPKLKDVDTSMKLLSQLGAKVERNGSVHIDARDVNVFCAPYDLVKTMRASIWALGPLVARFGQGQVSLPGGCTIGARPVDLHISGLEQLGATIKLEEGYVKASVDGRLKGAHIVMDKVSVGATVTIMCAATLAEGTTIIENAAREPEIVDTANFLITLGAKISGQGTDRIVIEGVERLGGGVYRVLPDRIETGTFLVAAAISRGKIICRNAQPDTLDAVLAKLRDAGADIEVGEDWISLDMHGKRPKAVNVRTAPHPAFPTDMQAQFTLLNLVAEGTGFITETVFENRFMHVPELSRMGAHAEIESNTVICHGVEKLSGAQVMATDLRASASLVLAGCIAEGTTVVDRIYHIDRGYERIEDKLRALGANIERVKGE
Sequence of UDP-N-acetylglucosamine 1-carboxyvinyltransferase (Escherichia coli K-12) (P0A749 whole entry): as above
Sequence of UDP-N-acetylglucosamine 1-carboxyvinyltransferase (Escherichia coli K-12), P0A749 [C115D] (P0A749 whole entry C115D): as the sequence (P0A749 whole entry) above, with C115D counted along it

Compound | MIC (Escherichia coli) | MIC (Bacillus subtilis) [µg/mL] | MIC (Staphylococcus aureus [1]) [µg/mL] | IC50 [2] [µM] | IC50 [3] [µM] | inhibition [4] | MIC (Staphylococcus aureus [5]) [µM] | Activity (Bacteria) | inhibition [6] [%] | Drug uptake [7] [nM] | Drug uptake [8] [µM] | MIC (Staphylococcus aureus [9]) [µg/mL] | MIC (Staphylococcus aureus [10]) [µg/mL] | MIC (Staphylococcus aureus [11]) [µg/mL] | MIC (Staphylococcus aureus [12]) [µg/mL] | MIC (Streptococcus pneumoniae) [µg/mL] | MIC (Enterococcus faecalis) [µg/mL] | MIC (Clostridioides difficile) [µg/mL]
O=C1/C(=N\O)CN(c2cccc(Cl)c2)N1c1cccc(Cl)c1 | 4 µg/mL | 10 | 20 | 88.1 | – | – | – | – | – | – | – | – | – | – | – | – | – | –
C[C@@H]1O[C@@H]1P(=O)(O)O [FOSFOMYCIN] | 89 µM | – | – | – | 6.7 | inactive | 17 | Active | – | – | – | – | – | – | – | – | – | –
N#Cc1cnc(NC(=O)C2CN(c3cccc(Cl)c3)N(c3cccc(Cl)c3)C2=O)s1 (configuration not stated) | 10 µM | – | – | – | 10.9 | – | 10 | – | 70.8 | 2560 | 84 | 8 | 16 | 32 | 8 | 32 | > 64 | 32
